This is an account of results in patent US10617772B2, “Hsp9O-targeted inflammation and infection imaging and therapy” (Memorial Sloan Kettering Cancer Center, priority 2014, dated 2020).

The test system of series [1] is inflammatory pulmonary consolidation. Description: I-124 PUH71 PET-CT, tracer mixed with a therapeutic dose of non-radioactive PUH71 (FIGS. 3-4). In kind it is in vivo, human. The procedure:
(§1) Positron emission tomography (PET) combined with X-ray computed tomography (CT) was performed using a state of the art integrated PET-CT scanner (Discovery DSTE™ General Electric). CT scans for attenuation correction and anatomic coregistration were performed prior to tracer-injection, using the following acquisition parameters: 140 kVp; 85 mA; pitch of 1.75:1; reconstructed slice thickness of 3.75 mm; 0.8 s per rotation. The CT protocol was designed for anatomic localization of tracer-signal and for attenuation correction, while minimizing radiation exposure. Each patient received ˜185 megabecquerel (MBq) [^124I]-PU-H71 by peripheral vein over two minutes. PET emission scans were acquired in two-dimensional mode starting at the mid-thighs moving toward the head, for 7.5 minutes per PET bed position. PET data were reconstructed using a standard ordered subset expected maximization iterative algorithm. Emission data were corrected for scatter, attenuation and decay. Clinical FDG PET-CT studies were performed according to standard methods using state of the art PET-CT scanners. [^124I]-PU-H71 scans were performed at 3-4 hrs, 20-24 hrs, 48-72 hours and, optionally, ˜168 hrs after tracer administration on the microdose [^124I]-PU-H71 PET-CT study.
PU-PET images were taken 1.5, 4, 24 and 48-72 hrs after co-administration on the tracer mixed with a therapeutic dose of non-radioactive PUH71 in a total volume of […], co-infused intravenously over one hour. Patient were treated with PU-H71 at escalating dose levels determined by a modified continuous reassessment model. Each patient is treated with his or her assigned dose on day 1, 4, 8 and 11 of each 21 day cycle. Pre- and post-treatment biopsies were collected for correlative studies including LCMSMS quantification of PU-H71, with the latter obtained within 24 hours of their cycle 1, day 1 dose of PU-H71.

In series [2] the test system is inflammatory pulmonary infiltrate. Description: I-124 PUH71 PET-CT, microdose study in patients (FIGS. 1-2). In kind it is in vivo, human. The following applies: person with ovarian cancer; PET-CT 24 hours after intravenous injection of 9.3 mCi. How it is done: as §1
Setting [3] is: person with breast cancer, 6.5 mCi mixed with 35 mg non-radioactive PUH71, PET.

For the compound `CC(C)NCCCn1c(Sc2cc3c(cc2[124I])OCO3)nc2c(N)ncnc21` [I-124 PUH71], in series [1] (setting [3]), the “clearance of tracer from blood stream (void of activity within the cardiac atrium)” value is on record as “cleared from blood stream” and the “tracer retention in left ventricle myocardium” value is recorded as “distinct tracer retention”. Besides, the “accumulation and retention of tracer in inflammatory pulmonary consolidation (right lung)” value in series [1] (person with breast cancer, 6.5 mCi mixed with 35 mg non-radioactive PUH71, immediately, 4 hours and 24 hours post-injection) was “distinct accumulation and sustained retention”. Further, the “accumulation of tracer in inflammatory pulmonary infiltrate (apex of left lung)” value in series [2] was “distinct accumulation”.

As to `CC(C)NCCCn1c(Sc2cc3c(cc2I)OCO3)nc2c(N)ncnc21` [PUH71], the “uptake relative to surrounding healthy tissues” value in series [1] (diseased tissue, patients, PET) is reported as “high uptake”. For the same compound, in series [1] (patients, PET), the blood clearance entry is “rapid blood clearance” and the “retention in the diseased tissue” value is “sustained retention”. In addition, the “outcome of pulmonary consolidation on CT scan” value in series [1] (two weeks after imaging, PUH71 35 mg twice a week for two weeks per three week cycle, together with antibiotic treatment and pleural fluid drainage) is listed as “pulmonary consolidation had resolved”.
